Earlier results, collected in patent US20030157104A1, “Treatment of refractory human tumors with epidermal growth factor receptor antagonists” (priority 1999, published 2003).

System: FGFR
Conditions: Panek et al.

inhibition of FGFR family of receptors: inhibits
SMILES: CCN(CC)CCOc1ccc(Nc2ncc3cc(-c4c(Cl)cccc4Cl)c(=O)n(C)c3n2)cc1 [PD166285, 6-(2,6-dichlorophenyl)-2-(4-(2-diethylaminoethoxy)phenylamino)-8-methyl-8H-pyrido(2,3-d)pyrimidin-7-one]
